In PMC3578785, “Improved BM212 MmpL3 Inhibitor Analogue Shows Efficacy in Acute Murine Model of Tuberculosis Infection” (PLoS ONE, 2013):
In brackets after ≈: the same amount, converted by molar mass. Read-outs that look alike come from different tables or passages of the source.

Tests used:
HepG2 cells = details: human, 48 h
in vitro [1] = assay type: in vitro ADME, mouse; details: pH 7.4; for half-life: mouse microsomes, read-out: t1/2 in mouse microsomes; for Cli mouse: 0.5 µM
Description: (§1) Protocol S6. Microsomal fraction stability experimental procedure.
(§2) Pooled mouse and human liver microsomes are purchased from Xenotech. Microsomes (final protein concentration 0.5 mg/mL, MgCl2 (final concentration = 5 mM) and test compound (final substrate concentration = 0.5 µM; final DMSO concentration = 0.5%) in 0.1M phosphate buffer pH 7.4 were pre-incubated at 37°C prior to the addition of NADPH (final concentration = 1 mM) to initiate the reaction. The final incubation volume was 600 µL. A control incubation was included for each compound tested where 0.1 M phosphate buffer pH 7.4 is added instead of NADPH (minus NADPH). One control compound was included with each species. All incubations were performed singularly for each test compound. Each compound was incubated for 30 minutes and samples (90 µL) of incubate were taken at 0, 5, 15, 20 and 30 min. The control (minus NADPH) was sampled at 30 min only. The reactions were stopped by the addition of sample to 200 µL Acetonitrile:Methanol 3:1 containing internal standard. The terminated samples were centrifuged at 2.500 rpm for 20 min at 4°C to precipitate the protein.
(§3) Quantitative Analysis: following protein precipitation, the samples were analyzed using specific […]
(§4) Data Analysis: from a plot of ln peak area ratio (compound peak area/internal standard peak area) against time, the gradient of the line was determined. Subsequently, half-life and intrinsic clearance were calculated using the equations below:
(§5) Elimination rate constant (k) = (- gradient)
(§6) Half life (t1/2) (min) = […]
(§7) Intrinsic Clearance (CLint) (mL/min/g protein) = […] where V=Incubation volume mL/g microsomal protein.

in vitro [2] = details: plasma, pH 7.4
M. tuberculosis H37Rv = test: microbe, parasite or virus in culture; assay type: cell-based; details: Mycobacterium tuberculosis, aerobic conditions
[3] = molecular target: human serum albumin (HSA) (Homo sapiens, UniProt P02768); assay type: in vitro ADME; details: human, pH 7.4
human serum albumin (HSA), sequence (P02768 25-609): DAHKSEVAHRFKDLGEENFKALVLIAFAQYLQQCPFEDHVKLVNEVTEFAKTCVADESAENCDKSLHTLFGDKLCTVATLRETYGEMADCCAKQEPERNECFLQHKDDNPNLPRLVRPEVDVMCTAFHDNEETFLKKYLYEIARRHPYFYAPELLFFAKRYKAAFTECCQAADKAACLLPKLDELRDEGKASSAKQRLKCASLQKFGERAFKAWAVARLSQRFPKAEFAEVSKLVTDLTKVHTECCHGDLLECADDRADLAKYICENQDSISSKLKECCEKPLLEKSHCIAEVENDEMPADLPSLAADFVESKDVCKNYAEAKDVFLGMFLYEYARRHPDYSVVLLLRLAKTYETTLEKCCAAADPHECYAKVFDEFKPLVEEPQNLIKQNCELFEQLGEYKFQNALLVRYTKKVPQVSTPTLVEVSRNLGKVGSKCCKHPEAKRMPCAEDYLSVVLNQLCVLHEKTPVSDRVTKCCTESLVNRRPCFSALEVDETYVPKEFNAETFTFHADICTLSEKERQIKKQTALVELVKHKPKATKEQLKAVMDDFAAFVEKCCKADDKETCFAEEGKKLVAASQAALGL
Description: Standard physical chemical property determination methods were used. Please see the Supporting Information for details.
Protocol S4. Determination of compounds binding to human serum albumin (HSA).
The determination of compounds binding to human serum albumin (HSA) was carried out by retention time measurements using immobilized HSA HPLC columns obtained from Chiral Technologies Ltd, France. The column dimensions were 50x3 mm. The mobile phase was 50 mM ammonium acetate buffer pH 7.4 and HPLC grade 2-propanol. HPLC Method: flow rate 1.8 ml/min applying 2.5 min 2-propanol gradient up to 30%. From 2.5 min to 4.5 min the 2-propanol concentration in the mobile phase was kept at 30%. From 4.5 min to 4.6 min, the 2-propanol concentration was decreased to 0% and kept like that until the end of the gradient run which was 6 min. A calibration set of compounds was first analyzed for which plasma protein binding data were available: Warfarin, Nizatidine, Bromazepam, Carbamazepine, Budesonide, Nicardipine, Indomethacine, Piroxicam, Naproxen. The calculation of the HSA binding data expressed as %HSA was carried out as described previously.

in vitro [4] = assay type: in vitro ADME, human; details: pH 7.4; for Cli human: 0.5 µM; for half-life: human microsomes, read-out: t1/2 in human microsomes
Description: as §1, §2, §3, §4, §5, §6, §7

in vitro [5] = details: African green monkey

| Compound | Tox50, cytotoxicity in HepG2 cells (HepG2 cells) | half-life (in vitro [1]) | fraction unbound at 1 µM (in vitro [2]) | MIC (M. tuberculosis H37Rv) | HSA (%) binding [3] | Cli human (in vitro [4]) | half-life (in vitro [4]) | chromatographic logD (physchem; pH 2) | chromatographic logD (physchem; pH 7.4) | chromatographic logD (physchem; pH 10.5) | CC50 at 72 h (in vitro [5]) | melting point | Cli mouse (in vitro [1]) |
| --- | --- | --- | --- | --- | --- | --- | --- | --- | --- | --- | --- | --- | --- |
| CCCc1ccc(-c2cc(CN3CCOCC3)c(C)n2-c2ccc(Cl)cc2)cc1 [Compound 12, 2-Methyl-3-[(morpholin-4-yl)-methyl]-5-[4-(propyl)phenyl]-1-[4-(chloro)phenyl]-1H-pyrrole] | 13.3 µM | > 30 min | < 0.001 | 2 µM (≈ 0.818 µg/mL) | 98.00% | <0.5 mL/min/g | > 30 min | 1.61 | 5.3 | 5.59 | > 256 µM | 113 °C | – |
| Cc1c(CN2CCOCC2)cc(-c2ccc(C(C)C)cc2)n1-c1ccc(Cl)cc1 [Compound 13, 2-Methyl-3-[(morpholin-4-yl)-methyl]-5-[4-(i-propyl)phenyl]-1-[4-(chloro)phenyl]-1H-pyrrole] | 10.0 µM | > 30 min | < 0.001 | 0.6 µM (≈ 0.245 µg/mL) | 97.94% | 0.71 mL/min/g | > 30 min | 1.56 | 5.13 | 5.45 | 241 µM | 135 °C | – |
| Cc1ccc(-n2c(-c3ccc(Cl)cc3)cc(CN3CCOCC3)c2C)cc1 [Compound 14, 2-Methyl-3-[(morpholin-4-yl)-methyl]-5-[4-(chloro)phenyl]-1-[4-(methyl)phenyl]-1H-pyrrole] | 26.0 µM | 9.69 min | < 0.001 | 1.3 µM (≈ 0.495 µg/mL) | 97.62% | 0.57 mL/min/g | > 30 min | 1.28 | 4.53 | 4.94 | 9.31 µM | 111 °C | 7.41 mL/min/g |
| CCc1ccc(-n2c(-c3ccc(Cl)cc3)cc(CN3CCOCC3)c2C)cc1 [Compound 15, 2-Methyl-3-[(morpholin-4-yl)-methyl]-5-[4-(chloro)phenyl]-1-[4-(ethyl)phenyl]-1H-pyrrole] | 17.8 µM | 18.5 min | < 0.001 | 0.6 µM (≈ 0.237 µg/mL) | 98.03% | 0.9 ± 0 mL/min/g | > 30 min | 1.54 | 5.01 | 5.36 | 170 µM | 102 °C | 4.0 ± 0.1 mL/min/g |
| CCCc1ccc(-n2c(-c3ccc(Cl)cc3)cc(CN3CCOCC3)c2C)cc1 [Compound 16, 2-Methyl-3-[(morpholin-4-yl)-methyl]-5-[4-(chloro)phenyl]-1-[4-(propyl)phenyl]-1H-pyrrole] | 15.4 µM | > 30 min | < 0.001 | 0.6 µM (≈ 0.245 µg/mL) | 98.24% | <0.5 mL/min/g | > 30 min | 1.72 | 5.61 | 5.86 | 60.1 µM | 94 °C | – |
| Cc1c(CN2CCOCC2)cc(-c2ccc(Cl)cc2)n1-c1ccc(C(C)C)cc1 [Compound 17, 2-Methyl-3-[(morpholin-4-yl)-methyl]-5-[4-(chloro)phenyl]-1-[4-(i-propyl)phenyl]-1H-pyrrole] | 14.7 µM | 19.6 min | < 0.001 | 0.9 µM (≈ 0.368 µg/mL) | 98.19% | 0.5 ± 0 mL/min/g | > 30 min | 1.67 | 5.43 | 5.7 | 175 µM | 113 °C | 3.8 ± 0.1 mL/min/g |
| COc1ccc(-n2c(-c3ccc(C)cc3)cc(CN3CCOCC3)c2C)cc1 [Compound 18, 2-Methyl-3-[(morpholin-4-yl)-methyl]-5-[4-(methyl)phenyl]-1-[4-(methoxy)phenyl]-1H-pyrrole] | 11.7 µM | < 5 min | 0.007 | 2 µM (≈ 0.753 µg/mL) | 95.87% | 1.26 mL/min/g | 59.9 min | 1.04 | 3.6 | 4.12 | 208 µM | 128 °C | 8.92 mL/min/g |
| CCc1ccc(-c2cc(CN3CCOCC3)c(C)n2-c2ccc(OC)cc2)cc1 [Compound 19, 2-Methyl-3-[(morpholin-4-yl)-methyl]-5-[4-(ethyl)phenyl]-1-[4-(methoxy)phenyl]-1H-pyrrole] | 5.7 µM | < 5 min | 0.003 | 0.3 µM (≈ 0.117 µg/mL) | 96.65% | 1.71 mL/min/g | > 30 min | 1.21 | 3.99 | 4.5 | 30 µM | 101 °C | 9.45 mL/min/g |
| CCCc1ccc(-c2cc(CN3CCOCC3)c(C)n2-c2ccc(OC)cc2)cc1 [Compound 20, 2-Methyl-3-[(morpholin-4-yl)-methyl]-5-[4-(propyl)phenyl]-1-[4-(methoxy)phenyl]-1H-pyrrole] | 14.3 µM | 10.9 min | < 0.001 | 0.3 µM (≈ 0.121 µg/mL) | 97.17% | 0.61 mL/min/g | > 30 min | 1.4 | 4.46 | 4.93 | > 256 µM | 107 °C | 5.75 mL/min/g |
